Results reported in PubChem BioAssay (NCI).
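Dose response: 5 concentrations. Exposure: 48 h. Format: 96-well plates. Endpoint: linear interpolation; highest concentration if not reached. GI50 marks 50% less growth. The concentration for full growth arrest is given as TGI.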

Key:
Assay in all cases: DTP human tumour cell line panel, 48 h
SNB-19 CNS = system: SNB-19 CNS
SW-620 colon = system: SW-620 colon
KM12 colon = system: KM12 colon
HCC-2998 colon = system: HCC-2998 colon
SK-OV-3 ovarian = system: SK-OV-3 ovarian
HL-60(TB) leukemia = system: HL-60(TB) leukemia
UACC-62 melanoma = system: UACC-62 melanoma
HOP-62 NSCLC = system: HOP-62 NSCLC
K-562 leukemia = system: K-562 leukemia
MALME-3M melanoma = system: MALME-3M melanoma
NCI-H460 lung = system: NCI-H460 lung
NCI/ADR-RES ovarian = system: NCI/ADR-RES ovarian
HOP-92 NSCLC = system: HOP-92 NSCLC
RXF 393 renal = system: RXF 393 renal
SF-268 CNS = system: SF-268 CNS
DU-145 prostate = system: DU-145 prostate
NCI-H226 lung = system: NCI-H226 lung
CAKI-1 renal = system: CAKI-1 renal
RPMI-8226 leukemia = system: RPMI-8226 leukemia
SR leukemia = system: SR leukemia
U251 CNS = system: U251 CNS
MOLT-4 leukemia = system: MOLT-4 leukemia
SF-539 CNS = system: SF-539 CNS
IGROV1 ovarian = system: IGROV1 ovarian
LOX IMVI melanoma = system: LOX IMVI melanoma
UACC-257 melanoma = system: UACC-257 melanoma
SK-MEL-28 melanoma = system: SK-MEL-28 melanoma
HT29 colon = system: HT29 colon
786-0 renal = system: 786-0 renal
A549 NSCLC = system: A549 NSCLC
OVCAR-4 ovarian = system: OVCAR-4 ovarian
MDA-MB-231 breast = system: MDA-MB-231 breast
EKVX NSCLC = system: EKVX NSCLC
PC-3 prostate = system: PC-3 prostate
UO-31 renal = system: UO-31 renal
TK-10 renal = system: TK-10 renal
OVCAR-5 ovarian = system: OVCAR-5 ovarian
SK-MEL-5 melanoma = system: SK-MEL-5 melanoma
NCI-H522 lung = system: NCI-H522 lung
A498 renal = system: A498 renal
HCT-116 colon = system: HCT-116 colon
HS 578T breast = system: HS 578T breast
CCRF-CEM leukemia = system: CCRF-CEM leukemia
MDA-MB-435 = system: MDA-MB-435
BT-549 breast = system: BT-549 breast
SN12C renal = system: SN12C renal
MCF7 breast = system: MCF7 breast
HCT-15 colon = system: HCT-15 colon
ACHN renal = system: ACHN renal
T-47D breast = system: T-47D breast
SNB-75 CNS = system: SNB-75 CNS
OVCAR-8 ovarian = system: OVCAR-8 ovarian
SK-MEL-2 melanoma = system: SK-MEL-2 melanoma
OVCAR-3 ovarian = system: OVCAR-3 ovarian
SF-295 CNS = system: SF-295 CNS
COLO 205 colon = system: COLO 205 colon
M14 melanoma = system: M14 melanoma

## CS(=O)(=O)c1nccc(-c2c(-c3ccc(F)c(OCCc4ccccc4)c3)nc3sccn23)n1
SNB-19 CNS
  GI50: 16.2 µM
  TGI: 31.6 µM
SW-620 colon
  GI50: 18.4 µM
  TGI: 35.8 µM
KM12 colon
  GI50: 17.3 µM
  TGI: 32.6 µM
HCC-2998 colon
  GI50: 15.4 µM
  TGI: 30.2 µM
SK-OV-3 ovarian
  GI50: 19.9 µM
  TGI: 45.2 µM
HL-60(TB) leukemia
  GI50: 5.17 µM
  TGI: 22.2 µM
UACC-62 melanoma
  GI50: 17.4 µM
  TGI: 36.7 µM
HOP-62 NSCLC
  GI50: 17 µM
  TGI: 32.9 µM
K-562 leukemia
  GI50: 20.4 µM
  TGI: 68.3 µM
MALME-3M melanoma
  GI50: 18.2 µM
  TGI: 33.1 µM
NCI-H460 lung
  GI50: 14 µM
  TGI: 30 µM
NCI/ADR-RES ovarian
  GI50: 16.8 µM
  TGI: 34.3 µM
HOP-92 NSCLC
  GI50: 8.62 µM
  TGI: 22.1 µM
RXF 393 renal
  GI50: 14.4 µM
  TGI: 27.6 µM
SF-268 CNS
  GI50: 16.4 µM
  TGI: 33.1 µM
DU-145 prostate
  GI50: 4.3 µM
  TGI: 14.8 µM
NCI-H226 lung
  GI50: 14.1 µM
  TGI: 27.8 µM
CAKI-1 renal
  GI50: 15.2 µM
  TGI: 28.5 µM
RPMI-8226 leukemia
  GI50: 20.5 µM
  TGI: 55 µM
SR leukemia
  GI50: 15.6 µM
  TGI: 40.6 µM
U251 CNS
  GI50: 16.6 µM
  TGI: 30.2 µM
MOLT-4 leukemia
  GI50: 17.5 µM
  TGI: 39.7 µM
SF-539 CNS
  GI50: 16.3 µM
  TGI: 30.3 µM
IGROV1 ovarian
  GI50: 15.4 µM
  TGI: 33.5 µM
LOX IMVI melanoma
  GI50: 14.9 µM
  TGI: 31.8 µM
UACC-257 melanoma
  GI50: 15 µM
  TGI: 29.6 µM
SK-MEL-28 melanoma
  GI50: 15.2 µM
  TGI: 28.9 µM
HT29 colon
  GI50: 16.7 µM
  TGI: 33.8 µM
786-0 renal
  GI50: 16.5 µM
  TGI: 30.8 µM
A549 NSCLC
  GI50: 17.1 µM
  TGI: 33.5 µM
OVCAR-4 ovarian
  GI50: 15.4 µM
  TGI: 29 µM
MDA-MB-231 breast
  GI50: 17.6 µM
  TGI: 34.4 µM
EKVX NSCLC
  GI50: 15.8 µM
  TGI: 29.2 µM
PC-3 prostate
  GI50: 17.1 µM
  TGI: 35.6 µM
UO-31 renal
  GI50: 14.1 µM
  TGI: 27.1 µM
TK-10 renal
  GI50: 15.4 µM
  TGI: 29.7 µM
OVCAR-5 ovarian
  GI50: 19.2 µM
  TGI: 44.8 µM
SK-MEL-5 melanoma
  GI50: 17.2 µM
  TGI: 31.8 µM
NCI-H522 lung
  GI50: 13.5 µM
  TGI: 30.7 µM
A498 renal
  GI50: 11.8 µM
  TGI: 24.3 µM
HCT-116 colon
  GI50: 16.3 µM
  TGI: 29.8 µM
HS 578T breast
  GI50: 17.2 µM
  TGI: 42.9 µM
CCRF-CEM leukemia
  GI50: 19.1 µM
  TGI: 45.6 µM
MDA-MB-435
  GI50: 16.7 µM
  TGI: 31 µM
BT-549 breast
  GI50: 15.6 µM
  TGI: 30.1 µM
SN12C renal
  GI50: 15.9 µM
  TGI: 34.4 µM
MCF7 breast
  GI50: 4.29 µM
  TGI: 18.7 µM
HCT-15 colon
  GI50: 16.2 µM
  TGI: 32.2 µM
ACHN renal
  GI50: 15.4 µM
  TGI: 28.7 µM
T-47D breast
  GI50: 10.3 µM
  TGI: 25.7 µM
SNB-75 CNS
  GI50: 11.8 µM
  TGI: 24 µM
OVCAR-8 ovarian
  GI50: 16.7 µM
  TGI: 33.2 µM
SK-MEL-2 melanoma
  GI50: 15.8 µM
  TGI: 30.5 µM
OVCAR-3 ovarian
  GI50: 15.4 µM
  TGI: 29 µM
SF-295 CNS
  GI50: 18.5 µM
  TGI: 33.3 µM
COLO 205 colon
  GI50: 19.1 µM
  TGI: 37.7 µM
M14 melanoma
  GI50: 17.7 µM
  TGI: 32.1 µM
